By melting point is commonly meant the temperature of the solid-liquid transition. As a reminder, the IC50 is the midpoint of a concentration-inhibition curve.

The values below come from US6924285B2, “Bicyclic heterocyclic compounds, pharmaceutical compositions containing these compounds, their use and process for preparing them” (Boehringer Ingelheim Pharma GmbH & Co., priority 2002, dated 2005).

The target of series [1] is T1, human EGF-receptor kinase (Homo sapiens, UniProt P00533).
T1 construct: GST; made in house; host or cells: Sf9 insect cells (baculovirus)
Briefly: Inhibition of human EGF-receptor kinase (enzyme assay, ELISA read-out). Type of series: biochemical. The conditions noted are these: cytoplasmic tyrosine kinase domain as GST fusion protein, substrate pEY/bio-pEY, 30 minutes at ambient temperature. As to the method: The inhibition of human EGF-receptor kinase was determined using the cytoplasmic tyrosine kinase domain (methionine 664 to alanine 1186 based on the sequence published in Nature 309 (1984), 418). For this the protein was expressed in Sf9 insect cells as GST fusion protein using the Baculovirus expression system.
The enzyme activity was measured in the presence or absence of the test compounds in serial dilutions. The polymer pEY (4:1) obtained from SIGMA was used as the substrate. Biotinylated pEY (bio-pEY) was added as the tracer substrate. 100 μl of reaction solution contained 10 μl of the inhibitor in 50% DMSO, 20 μl of the substrate solution (200 mM HEPES pH 7.4, 50 mM magnesium acetate, 2.5 mg/ml poly(EY), 5 μg/ml bio-pEY) and 20 μl of enzyme preparation. The enzyme reaction was started by the addition of 50 μl of a 100 μM ATP solution in 10 mM of magnesium chloride. The dilution of the enzyme preparation was adjusted so that the incorporation of phosphate in the bio-pEY was linear in terms of time and quantity of enzyme. The enzyme preparation was diluted in 20 mM HEPES pH 7.4, 1 mM EDTA, 130 mM common salt, 0.05% Triton X-100, 1 mM DTT and 10% glycerol.
The enzyme assays were carried out at ambient temperature over a period of 30 minutes and ended by the addition of 50 μl of a stopping solution (250 mM EDTA in 20 mM HEPES pH 7.4). 100 μl were placed on a streptavidine-coated microtitre plate and incubated for 60 minutes at ambient temperature. Then the plate was washed with 200 μl of a wash solution (50 mM Tris, 0.05% Tween 20). After the addition of 100 μl of an HRPO-labelled anti-PY antibody (PY20H Anti-PTyr:HRP made by Transduction Laboratories, 250 ng/ml) the preparation was incubated for 60 minutes. Then the microtitre plate was washed three times with 200 μl of wash solution. The samples were then combined with 100 μl of a TMB-peroxidase solution (A:B=1:1, Kirkegaard Perry Laboratories). After 10 minutes the reaction was stopped. The extinction was measured at OD450 nm with an ELISA reader. All the results were measured three times.
The data were adapted by iterative calculation using an analytical pogramme for sigmoidal curves (Graph Pad Prism Version 3.0) with a variable Hill pitch. […] The active substance concentration which inhibits the activity of EGF receptor kinase by 50% (IC50) was derived from the curves.

T1 sequence (P00533 688-1210): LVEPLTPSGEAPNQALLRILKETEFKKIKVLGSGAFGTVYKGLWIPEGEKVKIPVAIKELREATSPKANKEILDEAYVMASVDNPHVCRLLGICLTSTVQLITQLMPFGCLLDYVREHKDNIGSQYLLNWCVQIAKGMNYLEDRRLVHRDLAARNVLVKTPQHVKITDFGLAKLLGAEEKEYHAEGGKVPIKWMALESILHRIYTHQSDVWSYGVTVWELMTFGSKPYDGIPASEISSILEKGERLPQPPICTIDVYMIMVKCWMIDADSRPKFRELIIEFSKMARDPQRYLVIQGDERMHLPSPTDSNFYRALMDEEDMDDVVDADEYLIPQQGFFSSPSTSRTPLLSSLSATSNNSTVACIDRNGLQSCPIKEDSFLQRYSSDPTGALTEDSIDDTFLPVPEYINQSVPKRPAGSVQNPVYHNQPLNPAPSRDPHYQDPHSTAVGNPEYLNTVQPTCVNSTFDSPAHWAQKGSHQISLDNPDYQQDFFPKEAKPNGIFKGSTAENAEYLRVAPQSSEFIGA

`COc1cc2ncnc(Nc3ccc(F)c(Cl)c3)c2cc1O[C@H]1CCOC1` [Example 1, 4-[(3-chloro-4-fluoro-phenyl)amino]-6-((S)-tetrahydrofuran-3-yloxy)-7-methoxy-quinazoline] displayed a melting point of 184 °C.

With `Fc1ccc(Nc2ncnc3cc(OCCCN4CCOCC4)c(OC4CCOCC4)cc23)cc1Cl` [Example 7, 4-[(3-chloro-4-fluoro-phenyl)amino]-6-(tetrahydropyran-4-yloxy)-7-[3-(morpholin-4-yl)-propyloxy]-quinazoline], the melting point is 205 °C.

The compound `COc1cc2ncnc(Nc3ccc(F)c(Cl)c3)c2cc1OC1CCN(C(=O)N2CCCOCC2)CC1` [Example 12, 4-[(3-chloro-4-fluoro-phenyl)amino]-6-{1-[([1,4]oxazepan-4-yl)carbonyl)-piperidin-4-yloxy}-7-methoxy-quinazoline] returned a melting point of 171 °C.

`COc1cc2ncnc(Nc3ccc(F)c(Cl)c3)c2cc1O[C@H]1CC[C@@H](NS(C)(=O)=O)CC1` [Example 3, 4-[(3-chloro-4-fluoro-phenyl)amino]-6-(cis-4-methanesulphonylamino-cyclohexan-1-yloxy)-7-methoxy-quinazoline] gave a melting point of 234 °C. Besides, in series [1], the IC50 was determined as 0.9 nM.

As for `COc1cc2ncnc(Nc3ccc(F)c(Cl)c3)c2cc1O[C@H]1CC[C@@H](N)CC1` [Example 2, 4-[(3-chloro-4-fluoro-phenyl)amino]-6-(cis-4-amino-cyclohexan-1-yloxy)-7-methoxy-quinazoline x Trifluoroacetic Acid], the melting point was 232 °C. In addition, in series [1], the IC50 was 4.5 nM.
